Data set [1] deals with T1, human NK1 receptor (Homo sapiens, UniProt P25103). The data set is described as follows: Functional cellular test, Ca2+ measurement using FLIPR, NK1 (substance P stimulated CHO cells).
Procedure: (§4) Functional Cellular Tests of the NK1- and NK2-antagonistic Effects
(§5) Functional cellular tests of the antagonistic effect of the compounds of the present invention on the human tachykinin receptors were performed in CHO cells expressing the recombinant human NK1 or NK2 receptor. In these tests the inhibition of ligand induced increase in mobilization of intracellular calcium and the inhibition of ligand induced phosphorylation of MAPK were determined, which can be used as a measure of functional activity of tachykinin-antagonists. Additionally, the antagonistic properties of reference compounds on the different tachykinin receptors were characterized for comparison.
(§6) The effects of test compounds were assessed using Chinese hamster ovary (CHO) fibroblast cells, stably expressing cloned human NK1 or NK2 receptors. The NK receptor in coupled to Gq. The activation of the Gq protein by ligand binding to the receptor leads to a mobilization of intracellular calcium and phosphorylation of MAPK. Both systems were used to determine functional effects of the test compounds.
(§7) Ca^2+Measurements Using FLIPR for NK1 and NK2 Activity
(§8) For tests, cell were seeded 24 hours prior to the experiment into black 96-well microplates. The cell density was 2.2×10^4 cells/well. All steps were done under sterile conditions. In order to observe changes in intracellular calcium levels, cells were loaded with a calcium-sensitive dye. This dye (FLUO-4, from Molecular Probes) excites at 488 nm, and emits in the 560 nm range, only if a complex with calcium is formed. For the dye loading the growth-medium was aspirated out of the well without disturbing the confluent cell layer and 100 μl loading medium (HBSS, 4 μM FLUO-4, 0.005% (w/v) pluronic acid, 2.5 mM probenecid, 20 mM HEPES, pH 7.4) was dispensed into each well using an automatic pipettor system (Multidrop, Labsystems). Pluronic acid was added to increase dye solubility and dye uptake into the cells, whereas probenecid, an anion exchange inhibitor, was added to the loading medium to increase dye retention in the cells. The cells were incubated in a 5% CO2 incubator at 37° C. for 40 minutes. After dye loading, the cells were washed three times with wash-buffer (HBSS, 2.5 mM probenecid, 20 mM HEPES, pH 7.4) to reduce basal fluorescence. In the last washing step the buffer was aspirated and replaced with 100 μl washing buffer. […] The FLIPR setup parameters were set to 0.4 sec exposure length, filter 1, 50 μl fluid addition, pipettor height at 125 μl, dispense speed 40 μl/sec without mixing. Maximal fluorescence changes were obtained using the statistic function of the FLIPR software, and data plotted using GraphPad Prism 4. All points were expressed as a percentage inhibition of the control agonist. IC50 values were determined using sigmoidal dose-response curve fitting.
Data set [2] deals with T1, human NK1 receptor. The data set is described as follows: Binding power to NK1 receptors in vitro ([3H]-Substance P displacement, CHO cell membranes). More on the design: expressed in transfected cells; host or cells: CHO cells (membrane preparation). The note with it: human NK1 receptor in CHO membranes, ligand [3H]-Substance P; for Ki: read-out: pKi (NK1) (converted). Here is the method:
1. Determination of the Binding Power of the Test Substances to NK1 Receptors In Vitro.
Affinity of the test substances to human NK1 receptors was measured in vitro.
The receptor binding studies were performed with [^3H]-Substance P as ligand. For the binding test, different samples of a membrane preparation of CHO cells (=egg cells of the Chinese hamster, […]), which express the human NK1 receptor (“Accession Number” of the associated nucleic acid sequence=M74290; “Accession Number” of the associated protein sequence=P25103; cf. Takeda, Y.; Chou, K. B., Takeda, J.; Sachais, B. S. and Krause, J. E; Biochemical and Biophysical Research Communications, 179(3) (1991) 1232-1240), were incubated with a solution of the marked ligand, with the incubation mixtures containing no test substance or additions of different concentration of test substance. Then, separation of bound and free ligands was performed in each of the samples with the aid of glass-fiber filtration. The fraction remaining in the filter was washed several times with buffer solution and then the radioactivity of the fraction remaining in the filter was measured using a beta scintillation counter.
For the compounds of Examples 1 to 14, that concentration which effects half maximum displacement of the bound ligand was determined as IC50 of the respective test substance. From this, the corresponding inhibition constant (Ki value) of the test substance was calculated, and was stated as the negative common logarithm of the Ki value (=pKi value) The pKi value is a measurement of the affinity of the test substances to human NK1 receptors.

Data set [3] deals with T2, human NK2 receptor (Homo sapiens, UniProt P21452).
T2 sequence (P21452 1-398): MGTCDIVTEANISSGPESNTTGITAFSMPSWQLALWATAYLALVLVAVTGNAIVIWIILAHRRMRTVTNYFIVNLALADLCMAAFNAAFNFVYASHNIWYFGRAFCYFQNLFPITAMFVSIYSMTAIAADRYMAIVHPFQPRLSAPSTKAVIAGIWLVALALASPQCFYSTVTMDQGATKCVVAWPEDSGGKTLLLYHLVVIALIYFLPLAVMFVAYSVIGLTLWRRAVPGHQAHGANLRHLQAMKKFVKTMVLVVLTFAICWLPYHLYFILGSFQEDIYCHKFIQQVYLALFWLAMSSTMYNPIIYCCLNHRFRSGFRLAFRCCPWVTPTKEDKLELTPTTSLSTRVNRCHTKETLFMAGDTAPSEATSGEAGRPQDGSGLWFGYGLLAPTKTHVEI
The data set is described as follows: Binding power to NK2 receptors in vitro ([3H]-SR 48968 displacement, CHO cell membranes). As to conditions: human NK2 receptor in CHO membranes, ligand [3H]-SR 48968, 90 min incubation; for Ki: read-out: pKi (NK2) (converted). Set-up: expressed in transfected cells; host or cells: CHO cells (membrane preparation). As for the experimental part:
The affinity of the test substances to human NK2 receptors was measured in vitro. The ability of the test substances to displace the selective NK2 receptor antagonist SR 48968 (=saredutant) used as reference ligand from its corresponding bond was determined.
The receptor binding studies were carried out with radioactively marked [^3H]-SR 48968 (from Amersham) as ligand. For the binding test, different samples of a membrane preparation of CHO cells (=egg cells of the Chinese hamster, […]), which express the human NK2 receptor (for preparation, see N. P. Gerard et al., Journal of Biological Chemistry 265/33 (1990) 20455-20462), were incubated for 90 minutes (=min.) with a solution of the marked ligand, with the incubation mixtures containing no test substance or additions of different concentrations of test substance. Then in each case the membrane-bound ligands in the samples were separated from free ligands by filtration. The fraction remaining in the filter was washed several times with buffer solution, before its radioactivity was measured using a liquid scintillation counter. That concentration which effects half-maximum displacement of the bound reference ligand was determined as IC50 of the respective test substance. The inhibition constant (Ki value) of the test substance was calculated from the respective IC50 value, and was stated as the negative logarithmized value thereof (pKi).
If several measurements were performed, the average thereof was listed each time. The pKi value is a measurement of the affinity of the test substances to human NK2 receptors.

Data set [4] deals with T2, human NK2 receptor. Put plainly: Functional cellular test, Ca2+ measurement using FLIPR, NK2 (NKA stimulated CHO cells).
Procedure: as §4, §5, §6, §7, §8
For data set [5], the target named is T3, NK1 receptors (Cavia porcellus, UniProt P30547).
T3 construct: from tissue; host or cells: whole animal: anesthetized Pirbright-White guinea pigs
T3 sequence (P30547 whole entry): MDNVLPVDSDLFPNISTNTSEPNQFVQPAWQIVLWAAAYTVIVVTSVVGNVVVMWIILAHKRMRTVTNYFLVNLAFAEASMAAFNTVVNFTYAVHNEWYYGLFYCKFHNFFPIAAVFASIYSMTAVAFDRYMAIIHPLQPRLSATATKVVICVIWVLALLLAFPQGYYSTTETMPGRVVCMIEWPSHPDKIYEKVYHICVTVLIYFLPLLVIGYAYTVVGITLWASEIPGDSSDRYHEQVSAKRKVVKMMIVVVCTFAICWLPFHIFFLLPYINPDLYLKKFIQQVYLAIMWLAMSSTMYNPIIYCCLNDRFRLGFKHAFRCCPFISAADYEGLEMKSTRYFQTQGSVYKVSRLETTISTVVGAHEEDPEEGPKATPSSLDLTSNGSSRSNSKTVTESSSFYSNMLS
The data set is described as follows: NK1-receptor-antagonistic effectiveness in vivo in anesthetized guinea pigs (NKA-induced early hypotension). The note with it: guinea pig. The text has this:
(§1) 6. Determination of the NK1- and NK2-receptor-antagonistic Effectiveness of the Test Substances In Vivo
(§2) The NK1- and NK2-antagonistic activities of the test substances were investigated in anesthetized guinea pigs in each case after intravenous (=i.v.) and oral (=p.o.) administration in vivo. With the present test model it is possible to detect both NK2-antagonistic effects in three different organ systems (respiratory tracts, colon and circulation) and NK1-antagonistic effects (rapid drop in blood pressure) in an animal simultaneously.
Pirbright-White guinea pigs having a body weight of 500-700 g were anesthetized with ketamine/xylazine (67/13 mg/kg subcutaneously, initial dose, further doses administered as required). […] The animals were artificially ventilated via a tracheal cannula and the respiratory pressure was recorded by a pressure transducer. […] Blood pressure, heart rate, respiratory pressure and colonic pressure were measured continuously for each animal and plotted on a recorder and by a digital data-processing system. […]
(§3) The antagonistic effects of the test substances were then determined as “area under the curve” (“AUC”) over the investigation period after administration of the test substances (1-180 min after administration) and the ED50 values after oral administration obtained therefrom were plotted in Table 7.

Data set [6] deals with T4, NK2 receptors (Cavia porcellus, UniProt Q64077).
T4 construct: from tissue; host or cells: whole animal: anesthetized Pirbright-White guinea pigs
T4 sequence (Q64077 1-402): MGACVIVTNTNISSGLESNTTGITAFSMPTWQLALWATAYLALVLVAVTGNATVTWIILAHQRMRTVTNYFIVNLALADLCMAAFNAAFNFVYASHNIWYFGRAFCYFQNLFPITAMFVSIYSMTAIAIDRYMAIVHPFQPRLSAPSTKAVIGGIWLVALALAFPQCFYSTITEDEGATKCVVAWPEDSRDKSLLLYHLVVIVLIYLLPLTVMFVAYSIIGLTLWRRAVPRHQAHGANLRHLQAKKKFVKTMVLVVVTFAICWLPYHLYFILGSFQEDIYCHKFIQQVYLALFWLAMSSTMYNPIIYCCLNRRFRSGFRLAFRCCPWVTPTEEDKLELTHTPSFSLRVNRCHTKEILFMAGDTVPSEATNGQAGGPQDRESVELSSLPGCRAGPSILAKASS
The data set is described as follows: NK2-receptor-antagonistic effectiveness in vivo in anesthetized guinea pigs (NKA-induced late hypotension, bronchoconstriction, colonic motility). As to conditions: guinea pig.
Excerpt: as §1, §2
Pirbright-White guinea pigs having a body weight of 500-700 g were anesthetized with ketamine/xylazine (67/13 mg/kg subcutaneously, initial dose, further doses administered as required). The animals were provided with an intravenous catheter in order to administer the substance and an intra-arterial catheter to measure the blood pressure. The animals were artificially ventilated via a tracheal cannula and the respiratory pressure was recorded by a pressure transducer. A balloon was introduced into the distal colon of the animals for manometric recording of colon motility by a pressure transducer. Blood pressure, heart rate, respiratory pressure and colonic pressure were measured continuously for each animal and plotted on a recorder and by a digital data-processing system. […] The second phase of delayed hypotension (=phase of maximum hypotension after 2-5 min.) on the other hand is mediated via NK2 receptors, since they can be blocked by specific NK2 receptor antagonists.
These ED50 values obtained from cumulative dose effect curves are plotted in Table 6.
as §3

Where [7] appears, read: i.v., NKA stimulus 1 min after dosing.

These results are taken from patent US7592344B2, “NK1 and NK2-antagonists and compositions and methods of using the same” (Solvay Pharmaceuticals GmbH, priority 2005, dated 2009).

T1 sequence (P25103 whole entry): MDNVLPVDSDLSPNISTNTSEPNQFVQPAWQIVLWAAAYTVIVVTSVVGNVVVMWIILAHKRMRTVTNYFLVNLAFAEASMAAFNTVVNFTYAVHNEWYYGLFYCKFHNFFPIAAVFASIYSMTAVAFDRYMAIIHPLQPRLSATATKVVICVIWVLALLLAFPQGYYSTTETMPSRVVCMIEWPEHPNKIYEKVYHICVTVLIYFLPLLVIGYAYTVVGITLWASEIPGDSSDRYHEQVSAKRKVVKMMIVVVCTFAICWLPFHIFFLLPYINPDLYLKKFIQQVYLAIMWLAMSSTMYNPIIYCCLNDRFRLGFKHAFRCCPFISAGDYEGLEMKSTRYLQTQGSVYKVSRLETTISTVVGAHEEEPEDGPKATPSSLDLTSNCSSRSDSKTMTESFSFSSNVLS

As for `CN(CC(CCN1CCN(C(Cc2ccccc2)C(O)CO)CC1)c1ccc(Cl)c(Cl)c1)C(=O)c1cc(C#N)cc2ccccc12` (stereo not shown) [Compound 24], the results for the Kb in data set [1] and in data set [4] were 7.94 nM and 15.8 nM, respectively. Moreover, the Ki is 10 nM in data set [2] and 31.6 nM in data set [3].
Take `CC(=O)OC[C@@H](OC(C)=O)[C@H](c1ccco1)N1CCN(CC[C@H](CN(C)C(=O)c2cc(C#N)cc3ccccc23)c2ccc(Cl)c(Cl)c2)CC1` [Compound 27, (2S,3R)-2-(acetyloxy)-3-{4-[(3S)-4-[3-cyano-1-naphthoyl)(methyl)amino]-3-(3,4-dichlorophenyl)butyl]piperazin-1-yl}-3-(2-furyl)propyl acetate]: the Kb in data set [1] was 0.631 nM; in data set [4] it was 7.94 nM. For the same molecule, the Ki is 6.31 nM in data set [2] and 25.1 nM in data set [3].
Take `CN(CC(CCN1CCN(C(c2ccco2)C(O)C(O)CO)CC1)c1ccc(Cl)c(Cl)c1)C(=O)c1cc(C#N)cc2ccccc12` (stereo not shown) [Compound 7]: the “pA2 (NK1)” value in data set [1] (CHO cells with human NK1 receptor, FLIPR Ca2+, substance P 10^-8 M) was determined as 8.8. The “ED50 iv after 1 min (cumulative), NK1 (early hypotension)” value in data set [5] (setting [7]) worked out at 0.052 µmol/kg. In data set [6] (setting [7]), the “ED50 iv after 1 min (cumulative), NK2 (bronchoconstriction)” value came to 0.207 µmol/kg; the “ED50 iv after 1 min (cumulative), NK2 (colonic motility)” value was 0.309 µmol/kg; the “ED50 iv after 1 min (cumulative), NK2 (late hypotension)” value came out at 0.338 µmol/kg. In addition, the “pKi (NK1)” value in data set [2] stood at 8.3. Moreover, the “pKi (NK2)” value in data set [3] is listed as 7.4. In addition, in data set [4] (CHO cells with human NK2 receptor, FLIPR Ca2+, NKA 10^-7 M), the “pA2 (NK2)” value came out at 8.1.
Consider `COc1ccc([C@@H]([C@H](O)CO)N2CCN(CC[C@H](CN(C)C(=O)c3cc(C#N)cc4ccccc34)c3ccc(Cl)c(Cl)c3)CC2)cc1` [Compound 16, 3-cyano-N-[(2)-2-(3,4-dichlorophenyl)-4-{4-[(1S,2S)-2,3-dihydroxy-1-(4-methoxyphenyl)propyl]piperazin-1-yl}butyl]-N-methyl-1-naphthamide], for which the Kb was 0.501 nM in data set [1] and 0.794 nM in data set [4]. In addition, the Ki in data set [2] was 1 nM; in data set [3], 794 nM.
On to `CN(C[C@@H](CCN1CCN([C@@H](c2cccs2)[C@H](O)CO)CC1)c1ccc(Cl)c(Cl)c1)C(=O)c1cc(C#N)cc2ccccc12` [Compound 9, 3-cyano-N-[(2S)-2-(3,4-dichlorophenyl)-4-{4-[(1R,2S)-2,3-dihydroxy-1-(2-thienyl)propyl]piperazin-1-yl}butyl]-N-methyl-1-naphthamide], for which, in data set [4], the Kb was 10 nM.
For orientation: melting point means the temperature, or range, at which the solid turns liquid. The molecule `CN(C[C@@H](CCN1CCN([C@@H](c2ccco2)[C@H](O)CO)CC1)c1ccc(Cl)c(Cl)c1)C(=O)c1cc(C#N)cc2ccccc12` [Compound 1, 3-cyano-N-[(2S)-2-(3,4-dichlorophenyl)-4-{4-[(1R,2S)-1-(2-furyl)-2,3-dihydroxy-propyl]-piperazin-1-yl}butyl]-N-methyl-1-naphthamide] came in with a melting point of 140 to 142 °C. Besides, the “oral activity as NK1 receptor antagonist (in words)” value in data set [5] (oral) was “active orally”. The “oral activity as NK2 receptor antagonist (in words)” value in data set [6] (oral) is “active orally”.
For the molecule `CC(=O)OCC(O)C(Cc1ccccc1)N1CCN(CCC(CN(C)C(=O)c2cc(C#N)cc3ccccc23)c2ccc(Cl)c(Cl)c2)CC1` (stereo not shown) [Compound 26], the values for the Kb in data set [1] and in data set [4] were 10 nM and 39.8 nM, respectively. Also, the Ki is 7.94 nM in data set [2] and 100 nM in data set [3].
